# Reference: article PMC9000427, “Synthesis and Anti-Trypanosoma cruzi Biological Evaluation of Novel 2-Nitropyrrole Derivatives” (Molecules, 2022)
# Values joined by “and” are separate entries in the source; they are usually repeats but may differ in a detail not shown here. Equal entries are not always repeated. Where two headings read alike, the source gives them in different places.
# Key:
# Vero host cells = assay: Cytotoxicity against Vero host cells in the T. cruzi intracellular assay; format: cell-based; settings: Chlorocebus sabaeus
# Protocol: (§1) These new derivatives were evaluated in vitro against the intracellular T. cruzi strain X10/7-Silvio by determining their 50% efficacy concentration (EC50) and were compared to the reference anti-T. cruzi drug nifurtimox. The in vitro 50% cytotoxic concentrations (CC50) were assessed on the CHO cell line and compared to a cytotoxic reference drug, doxorubicin. In vitro cytotoxicity against vero host cells was also assessed (vero cells EC50).
# Vero cells (ECCAC 84113001) were screened for mycoplasma infection and maintained in MEM medium supplemented with Glutamax (Life Technologies) and 10% (v/v) foetal calf serum (FCS) at 37 °C in the presence of 5% CO2. T. cruzi parasites (Silvio X10/7 A1), a clonal line kindly provided by Susan Wyllie and Prof. Alan Fairlamb were maintained in Vero cells. On a weekly basis, emerged trypomastigotes were used to infect a new Vero monolayer at the multiplicity of infection (MOI) 1.5 [32].
# For the primary intracellular assay, the infection conditions were chosen so that no trypomastigote egress occurs during the compound incubation time. First, Vero cells were infected overnight with tissue culture-derived T. cruzi trypomastigotes in T225 tissue culture flasks (MOI 5).
# Next, any remaining free trypomastigotes were washed away with serum-free MEM, and the infected Vero cells were harvested by trypsinisation. The infected Vero cells were then plated into 384-well plates containing the compounds to be tested, at 4000 cells per well in MEM media with 1% FCS. After 96h incubation at 37 °C in the presence of 5% CO2, the plates were fixed with 4% formaldehyde for 20 min at room temperature and stained with 5μg/mL Hoechst 33342. The plates were imaged on a Perkin Elmer Operetta high-content imaging system using a 20× objective. Images were analysed using the Columbus system (Perkin Elmer). The algorithm for the primary assay first identified the Vero nuclei followed by the demarcation of the cytoplasm and identification of intracellular amastigotes. This algorithm reported the mean number of parasites per Vero cell and the total number of Vero cells. The data analysis was as previously described.
# in vitro = format: cell-based; settings: Chinese hamster, CC50 CHO
# Protocol: as §1
# The toxicity of compounds towards Chinese hamster ovary cells (CHO-K1, ATCC CCL61) was evaluated by the NRU toxicity test, based on the concentration-dependent reduction of the uptake of the vital dye neutral red when measured 24 h after chemical treatment. Cells were grown in McCoy’s medium supplemented with Penicillin 100 IU/mL and streptomycin 100 μg/mL, and 10% of inactivated calf serum, and incubated at 37 °C in CO2 5% atmosphere. They were seeded into two 96-well tissue culture plates (0.1 mL per well), at a concentration of 1 × 10^5 cells/mL, and incubated at 37 °C (5% CO2) for 24 h, until confluent. The culture medium was decanted and replaced by 100 µL of fresh medium containing the appropriate concentrations of the compounds (eight different concentrations in triplicate), then cells were incubated at 37 °C (5% CO2) in the dark for 24 h. At the end of the incubation period, cells were washed, placed into neutral red medium (50 μg/mL neutral red in complete medium). This vital dye is a weak cationic dye that penetrates membranes of living cells by […] and accumulates intracellularly in lysosomes. On the contrary, alterations of the cell surface or metabolism result in a decreased uptake and binding of NR in non-viable cells. Cells were incubated for 3 h at 37°C, 5% CO2, and then the culture medium was removed, and cells were washed three times with 0.2 mL of PBS to remove excessive dye. Destaining solution (50% ethanol, 1% acetic acid, 49% distilled water; 50µL per well) was added into the wells, and the plates were shaken for 15–20 min at room temperature in the dark. The degree of cell viability was measured by a fluorescence–luminescence reader. The optical density (OD) of each well was read at 540 nm. The results obtained for wells treated with the test compounds were compared to those of untreated control wells (100% viability) and converted to percentage values. The mean OD value of blank wells (containing only neutral red desorbed solution) was subtracted from the mean OD value of three treated wells (dilutions of the test material, positive control or HBSS). The percentages of cell viability were calculated as:Viability (%) = (Mean OD of test wells-mean OD of blanks) × 100 / (Mean OD of negative control − mean OD of blanks)
# The concentration of the test substances causing a 50% release of neutral red as compared to the control culture was calculated by non-linear regression analysis using software Phototox Version 2.0.
# [1] = tested on: T. cruzi X10/7 intracellular amastigotes; assay: T. cruzi intracellular assay (infected Vero cells, high-content imaging); format: cell-based, Trypanosoma cruzi
# Protocol: The infected Vero cells were then plated into 384-well plates containing the compounds to be tested, at 4000 cells per well in MEM media with 1% FCS. […] The plates were imaged on a Perkin Elmer Operetta high-content imaging system using a 20× objective. Images were analysed using the Columbus system (Perkin Elmer).
# [2] = Vero host cells, 96h incubation, concentrations up to 50 µM, read-out: Vero cells EC50
# [3] = Trypanosoma cruzi, Vero, 96 h, intracellular T. cruzi strain X10/7-Silvio, 96h incubation, mean ± SD of two independent biological replicates, read-out: EC50 T. cruzi
# [4] = intracellular T. cruzi strain X10/7-Silvio, 96h incubation, mean ± SD of two independent biological replicates, read-out: EC50 T. cruzi
# [5] = Replicate 1, inhibition of Vero host cell growth, read-out: C_pXC50 host cells
# [6] = Trypanosoma cruzi, Vero, Replicate 1, dose response curve, read-out: pXC50 intracellular amastigotes (converted)
# [7] = Trypanosoma cruzi, Vero, Replicate 2, dose response curve, read-out: pXC50 intracellular amastigotes (converted)
"EC50 [1, 3]",melting point,SMILES,EC50 (Vero host cells; [2]),CC50 at 24 h (in vitro),other results
34.5 ± 21.9 µM,174 to 175 °C,"O=C(Cn1cccc1[N+](=O)[O-])NCc1ccccc1 [Compound 3, N-Benzyl-2-(2-nitro-1H-pyrrol-1-yl)acetamide]",42 ± 11.3 µM,24.3 µM,
< 10 µM,201 to 202 °C,"O=C(Cn1cccc1[N+](=O)[O-])Nc1ccccc1 [Compound 4, 2-(2-Nitro-1H-pyrrol-1-yl)-N-phenylacetamide]",14 µM,262 ± 3.9 µM,"EC50 [1, 4]: 6 µM"
41 ± 12.7 µM,161 to 162 °C,"O=C(Cn1cccc1[N+](=O)[O-])NCc1cccc(C(F)(F)F)c1 [Compound 15, 2-(2-Nitro-1H-pyrrol-1-yl)-N-[3-(trifluoromethyl)benzyl]acetamide]",43 ± 9.9 µM,185 ± 5.1 µM,
< 10 µM,,"O=C(Cn1cccc1[N+](=O)[O-])Nc1ccc(Br)cc1 [Compound 16, N-(4-Bromophenyl)-2-(2-nitro-1H-pyrrol-1-yl)acetamide]",14.5 ± 0.7 µM,173 ± 4.6 µM,"EC50 [1, 4]: 6.5 ± 0.6 µM"
50 µM,,"O=C(Cn1cccc1[N+](=O)[O-])Nc1ccccc1Cl [Compound 17, N-(2-Chlorophenyl)-2-(2-nitro-1H-pyrrol-1-yl)acetamide]",> 50 µM,198 ± 5.7 µM,
,,"O=C(Cn1cccc1[N+](=O)[O-])Nc1cccc(C(F)(F)F)c1 [Compound 18, 2-(2-Nitro-1H-pyrrol-1-yl)-N-[3-(trifluoromethyl)phenyl]acetamide]",> 50 µM,156 ± 2.9 µM,"EC50 (Vero host cells; [5]): > 50.1 µM; maximum effect (percent inhibition of intracellular amastigotes) ([1]; 96h treatment, two independent replicates, normalised to DMSO (0%) and nifurtimox controls (100%)): 71%; Emax ([1]; Trypanosoma cruzi, Vero, 96 h, 96h treatment, two independent replicates, normalised to DMSO (0%) and nifurtimox controls (100%), read-out: maximum effect (percent inhibition of intracellular amastigotes)): 79%; EC50 [1, 6]: 2.29 µM; EC50 [1, 7]: 4.9 µM; EC50 [1, 4]: < 10 µM and 3.6 µM"
50 µM,,"COc1cccc(NC(=O)Cn2cccc2[N+](=O)[O-])c1 [Compound 19, N-(3-Methoxyphenyl)-2-(2-nitro-1H-pyrrol-1-yl)acetamide]",> 50 µM,260 ± 6.3 µM,
,190 to 191 °C,"CC(C)NC(=O)Cn1cccc1[N+](=O)[O-] [Compound 20, N-Isopropyl-2-(2-nitro-1H-pyrrol-1-yl)acetamide]",,321 ± 5.3 µM,
,,"O=C(Cn1cccc1[N+](=O)[O-])NC1CCCC1 [Compound 21, N-Cyclopentyl-2-(2-nitro-1H-pyrrol-1-yl)acetamide]",,303 ± 6.1 µM,
,185 to 186 °C,"O=C(Cn1cccc1[N+](=O)[O-])Nc1cc(F)ccc1Br [Compound 22, N-(2-Bromo-5-fluorophenyl)-2-(2-nitro-1H-pyrrol-1-yl)acetamide]",,188 ± 4.4 µM,
,,"COc1cccc2c1C(=O)c1c(O)c3c(c(O)c1C2=O)C[C@@](O)(C(=O)CO)C[C@@H]3O[C@H]1C[C@H](N)[C@H](O)[C@H](C)O1 [Doxorubicin, reference compound]",,4.6 ± 0.08 µM,
2.1 ± 0.2 µM,,"CC1CS(=O)(=O)CCN1/N=C/c1ccc([N+](=O)[O-])o1 (centres unmarked) [Nifurtimox, reference compound]",,,"EC50 (Vero host cells; [5]): > 15.8 µM; EC50 [1, 6]: 2.04 µM; EC50 [1, 7]: 2.04 µM"
